One data set relates to Typhlodromus pyri. To be noted: chronic/long-term; duration: 14 days; reproduction.
A further data set concerns Daphnia magna. The following applies: chronic/long-term; duration: 22 days; reproduction.
The test system of the next data set is Tagia sp. The following applies: acute; duration: 14 days; mortality.
The subject of another data set is Apis mellifera. To be noted: acute, duration: 48 hours, mortality.
A further data set deals with Lepomis macrochirus. To be noted: acute; duration: 96 hours; mortality.
Another data set relates to Anas platyrhynchos. To be noted: short-term; oral; feed; mortality.

Values joined by “and” are separate entries in the source; they are usually repeats but may differ in a detail not shown here. Identical values can stand only once.

As usually defined, the LOAEL is the lowest tested level that showed an adverse finding. As a reminder, the NOAEL is the highest tested level that showed no adverse finding.

Molecule `CSC(=O)c1cccc2nnsc12` [Acibenzolar-S-methyl] returned an LEL in the data set with Typhlodromus pyri of 30 g/ha. The LD50 in the data set with Rattus norvegicus (acute, oral, mortality) was above 2000 mg/kg; with Colinus virginianus (acute, oral, mortality) it was above 2000 mg/kg; with Apis mellifera (dermal), above 100 µg/piece; in the data set on Apis mellifera (oral, unspecified), 128 µg/piece. The molecule further came in with an LOAEL with Rattus norvegicus (reproduction developmental, body weight) of 10 mg/kg-day. The same molecule registered an NOAEL with Rattus norvegicus (reproduction developmental, oral, diet) of 15 mg/kg-day. Further, the NOEC in the data set with Colinus virginianus (reproduction developmental, reproduction) worked out at 61 mg/kg-day; with Daphnia magna, 44 µg/L; with Oncorhynchus mykiss (chronic/long-term, duration: 87 days), 26 µg/L. Moreover, the LC50 in the data set on Tagia sp. is above 500 mg/kg; in the data set with Oncorhynchus mykiss (acute, duration: 96 hours, mortality) it was 0.4 µg/mL and 1.1 µg/mL and 0.88 µg/mL; in the data set on Lepomis macrochirus it was 2.8 µg/mL and 1.6 µg/mL; in the data set with Anas platyrhynchos, above 1540 mg/kg-day.

These data come from EPA's ToxValDB 9.5 (doi:10.2903/j.efsa.2014.3691).
